Assay results taken from patent publication US20070219234A1, “Thienopyridine Derivatives” (priority 2004, published 2007).

melting point | Compound
241 to 242 °C | NC(=O)c1sc2nccc(N3CCN(Cc4ccccc4)CC3)c2c1N [Example 43, 3-amino-4-(4-benzylpiperazin-1-yl)thieno[2,3-b]pyridine-2-carboxamide]
280 °C (dec.) | NC(=O)c1sc2nccc(N3CCN(c4ncccn4)CC3)c2c1N [Example 44, 3-amino-4-(4-pyrimidin-2-ylpiperazin-1-yl)thieno[2,3-b]pyridine-2-carboxamide]
266 to 270 °C | NC(=O)c1sc2nccc(N3CCN(c4ccccn4)CC3)c2c1N [Example 45, 3-amino-4-(4-pyridin-2-ylpiperazin-1-yl)thieno[2,3-b]pyridine-2-carboxamide]
270 °C (dec.) | Cc1ccc(N2CCN(c3ccnc4sc(C(N)=O)c(N)c34)CC2)cc1 [Example 46, 3-amino-4-[4-(4-methylphenyl)piperazin-1-yl]thieno[2,3-b]pyridine-2-carboxamide]
275 °C (dec.) | NC(=O)c1sc2nccc(N3CCN(c4ccc(F)cc4)CC3)c2c1N [Example 47, 3-amino-4-[4-(4-fluorophenyl)piperazin-1-yl]thieno[2,3-b]pyridine-2-carboxamide]
225 to 233 °C | NC(=O)c1sc2nccc(N3CCN(C(c4ccccc4)c4ccccc4)CC3)c2c1N [Example 48, 3-amino-4-(4-benzhydrylpiperazin-1-yl)thieno[2,3-b]pyridine-2-carboxamide]
275 °C (dec.) | COc1ccc(N2CCN(c3ccnc4sc(C(N)=O)c(N)c34)CC2)cc1 [Example 49, 3-amino-4-[4-(4-methoxyphenyl)piperazin-1-yl]thieno[2,3-b]pyridine-2-carboxamide]
> 300 °C | NC(=O)c1sc2nccc(N3CCN(C(=O)c4ccccc4)CC3)c2c1N [Example 51, 3-amino-4-(4-benzoylpiperazin-1-yl)thieno[2,3-b]pyridine-2-carboxamide]
297 °C (dec.) | NC(=O)c1sc2nccc(N3CCN(c4ccc(Cl)cc4)CC3)c2c1N [Example 52, 3-amino-4-[4-(4-chlorophenyl)piperazin-1-yl]thieno[2,3-b]pyridine-2-carboxamide]
294 °C (dec.) | COc1ccccc1N1CCN(c2ccnc3sc(C(N)=O)c(N)c23)CC1 [Example 53, 3-amino-4-[4-(2-methoxyphenyl)piperazin-1-yl]thieno[2,3-b]pyridine-2-carboxamide]
294 to 298 °C (dec.) | NC(=O)c1sc2nccc(N3CCN(c4ccccc4Cl)CC3)c2c1N [Example 54, 3-amino-4-[4-(2-chlorophenyl)piperazin-1-yl]thieno[2,3-b]pyridine-2-carboxamide]
177 to 178 °C | CC(C)(C)OC(=O)N1CCCN(c2ccnc3sc(C(N)=O)c(N)c23)CC1 [Example 55, tert-butyl 4-[3-amino-2-(aminocarbonyl)thieno[2,3-b]pyridin-4-yl]-1,4-diazepane-1-carboxylate]
194 to 195 °C | NC(=O)c1sc2nccc(N3CCCN(Cc4ccccc4)CC3)c2c1N [Example 56, 3-amino-4-(4-benzyl-1,4-diazepan-1-yl)thieno[2,3-b]pyridine-2-carboxamide]
92 to 96 °C | NC(=O)c1sc2nccc(N3CCCN(c4ccc(Cl)cc4)CC3)c2c1N [Example 60, 3-amino-4-[4-(4-chlorophenyl)-1,4-diazepan-1-yl]thieno[2,3-b]pyridine-2-carboxamide]
206 to 210 °C | NC(=O)c1sc2nccc(N3CCCN(c4ccccc4Cl)CC3)c2c1N [Example 61, 3-amino-4-[4-(2-chlorophenyl)-1,4-diazepan-1-yl]thieno[2,3-b]pyridine-2-carboxamide]
151 to 153 °C | N#Cc1ccc(N2CCCN(c3ccnc4sc(C(N)=O)c(N)c34)CC2)cc1 [Example 62, 3-amino-4-[4-(4-cyanophenyl)-1,4-diazepan-1-yl]thieno[2,3-b]pyridine-2-carboxamide]
204 to 208 °C | NC(=O)c1sc2nccc(N3CCCN(c4ccc(C(F)(F)F)cc4)CC3)c2c1N [Example 63, 3-amino-4-[4-(4-trifluoromethylphenyl)-1,4-diazepan-1-yl]thieno[2,3-b]pyridine-2-carboxamide]
179 to 184 °C | COc1ccccc1N1CCCN(c2ccnc3sc(C(N)=O)c(N)c23)CC1 [Example 67, 3-amino-4-[4-(2-methoxyphenyl)-1,4-diazepan-1-yl]thieno[2,3-b]pyridine-2-carboxamide]
194 to 197 °C | Cc1cc(N2CCCN(c3ccnc4sc(C(N)=O)c(N)c34)CC2)ccc1F [Example 69, 3-amino-4-[4-(4-fluoro-3-methylphenyl)-1,4-diazepan-1-yl]thieno[2,3-b]pyridine-2-carboxamide]
206 to 209 °C (dec.) | Cc1ccccc1N1CCCN(c2ccnc3sc(C(N)=O)c(N)c23)CC1 [Example 70, 3-amino-4-[4-(2-toluyl)-1,4-diazepan-1-yl]thieno[2,3-b]pyridine-2-carboxamide]
79 to 83 °C | Cc1ccc(N2CCCN(c3ccnc4sc(C(N)=O)c(N)c34)CC2)cc1F [Example 71, 3-amino-4-[4-(3-fluoro-4-methylphenyl)-1,4-diazepan-1-yl]thieno[2,3-b]pyridine-2-carboxamide]

melting point | Compound
247 to 250 °C | Cc1cc(N2CCN(c3ccccc3)CC2)c2c(N)c(C(N)=O)sc2n1 [Example 75, 3-amino-6-methyl-4-(4-phenylpiperazin-1-yl)thieno[2,3-b]pyridine-2-carboxamide]
213 to 215 °C | NC(=O)c1sc2nccc(N3CCCN(c4cccc(Cl)c4)CC3)c2c1N [Example 78, 3-amino-4-[4-(3-chlorophenyl)-1,4-diazepan-1-yl]thieno[2,3-b]pyridine-2-carboxamide]
211 to 213 °C | NC(=O)c1sc2nccc(N3CCCN(c4ccc(OCc5ccccc5)cc4)CC3)c2c1N [Example 79, 3-amino-4-{4-[4-(benzyloxy)phenyl]-1,4-diazepan-1-yl}thieno[2,3-b]pyridine-2-carboxamide]
180 to 185 °C | NC(=O)c1sc2nccc(N3CCCN(c4cccc([N+](=O)[O-])c4)CC3)c2c1N [Example 80, 3-amino-4-[4-(3-nitrophenyl)-1,4-diazepan-1-yl]thieno[2,3-b]pyridine-2-carboxamide]
181 to 184 °C | NC(=O)c1sc2nccc(N3CCCN(c4ccc(F)c(Cl)c4)CC3)c2c1N [Example 81, 3-amino-4-[4-(3-chloro-4-fluorophenyl)-1,4-diazepan-1-yl]thieno[2,3-b]pyridine-2-carboxamide]
170 to 173 °C | NC(=O)c1sc2nccc(N3CCCN(c4ccc(Br)cc4)CC3)c2c1N [Example 82, 3-amino-4-[4-(4-bromophenyl)-1,4-diazepan-1-yl]thieno[2,3-b]pyridine-2-carboxamide]
195 to 197 °C | NC(=O)c1sc2nccc(N3CCCN(c4cccc(C(F)(F)F)c4)CC3)c2c1N [Example 86, 3-amino-4-{4-[3-(trifluoromethyl)phenyl]-1,4-diazepan-1-yl}thieno[2,3-b]pyridine-2-carboxamide]
163 to 165 °C | NC(=O)c1sc2nccc(N3CCCN(c4ccc(OC(F)(F)F)cc4)CC3)c2c1N [Example 87, 3-amino-4-{4-[4-(trifluoromethoxy)phenyl]-1,4-diazepan-1-yl}thieno[2,3-b]pyridine-2-carboxamide]
228 to 231 °C | NC(=O)c1sc2nccc(N3CCCN(c4c(F)c(F)nc(F)c4F)CC3)c2c1N [Example 88, 3-amino-4-[4-(2,3,5,6-tetrafluoropyridin-4-yl)-1,4-diazepan-1-yl]thieno[2,3-b]pyridine-2-carboxamide]
228 to 231 °C | NC(=O)c1sc2nccc(N3CCCN(c4ncnc5ccccc45)CC3)c2c1N [Example 89, 3-amino-4-(4-quinazolin-4-yl-1,4-diazepan-1-yl)thieno[2,3-b]pyridine-2-carboxamide]
114 to 117 °C | Cc1ccc(N2CCCN(c3ccnc4sc(C(N)=O)c(N)c34)CC2)cc1[N+](=O)[O-] [Example 90, 3-amino-4-[4-(4-methyl-3-nitrophenyl)-1,4-diazepan-1-yl]thieno[2,3-b]pyridine-2-carboxamide]
231 to 232 °C | CC(C)(C)c1ccc(N2CCCN(c3ccnc4sc(C(N)=O)c(N)c34)CC2)cc1 [Example 92, 3-amino-4-[4-(4-tert-butylphenyl)-1,4-diazepan-1-yl]thieno[2,3-b]pyridine-2-carboxamide]
215 to 217 °C | Cc1cccc(N2CCN(c3ccnc4sc(C(N)=O)c(N)c34)CC2C)c1 (centres unmarked) [Example 95, 3-amino-4-[3-methyl-4-(3-methylphenyl)piperazin-1-yl]thieno[2,3-b]pyridine-2-carboxamide]
288 to 291 °C (dec.) | NC(=O)c1sc2nccc(N3CCCN(c4ccncc4)CC3)c2c1N [Example 100, 3-amino-4-(4-pyridin-4-yl-1,4-diazepan-1-yl)thieno[2,3-b]pyridine-2-carboxamide]
214 to 215 °C | CC(=O)N1CCCN(c2ccnc3sc(C(N)=O)c(N)c23)CC1 [Example 103, 4-(4-acetyl-1,4-diazepan-1-yl)-3-aminothieno[2,3-b]pyridine-2-carboxamide]
214 to 217 °C | CS(=O)(=O)N1CCCN(c2ccnc3sc(C(N)=O)c(N)c23)CC1 [Example 104, 3-amino-4-[4-(methylsulfonyl)-1,4-diazepan-1-yl]thieno[2,3-b]pyridine-2-carboxamide]
232 to 234 °C | NC(=O)c1sc2nccc(N3CCCN(c4ccc(Cl)nn4)CC3)c2c1N [Example 105, 3-amino-4-[4-(6-chloropyridazin-3-yl)-1,4-diazepan-1-yl]thieno[2,3-b]pyridine-2-carboxamide]
238 to 241 °C | COc1ccnc2sc(C(N)=O)c(N)c12 [Example 107, 3-amino-4-methoxythieno[2,3-b]pyridine-2-carboxamide]
241 to 243 °C | CCOc1ccnc2sc(C(N)=O)c(N)c12 [Example 108, 3-amino-4-ethoxythieno[2,3-b]pyridine-2-carboxamide]
216 to 221 °C | NC(=O)c1sc2nccc(OCc3ccccc3)c2c1N [Example 110, 3-amino-4-(benzyloxy)thieno[2,3-b]pyridine-2-carboxamide]
